Data taken from patent US20130210846A1, “USE OF NOVEL PAN-CDK INHIBITORS FOR TREATING TUMORS” (BAYER INTELLECTUAL PROPERTY GMBH, priority 2010, published 2013).

How the values were obtained:
MCF7 = test: Proliferation assay MCF7; format: cell-based, human; settings: MCF7, estrogen receptor-positive mamma carcinoma; 4 days, crystal violet
Experimental: (§1) Cultivated human tumor cells (originally obtained from ATCC, HeLa-MaTu and HeLa-MaTu-ADR, originally obtained from Epo GmbH, Berlin, Germany) were plated at a density of 1000 to 5000 cells/measuring point, depending on the growth rate of the cell line, in a 96-well multititer plate in 200 μl of growth medium (DMEM/HAMS F12, 2 mM L-glutamine, 10% fetal calf serum). After 24 hours the cells of one plate (zero-point plate) were stained with crystal violet (see below), whereas the medium of the other plates was replaced with fresh culture medium (200 μl), to which the test substances had been added at various concentrations (0 μM, and in the range 0.01-30 μM; the final concentration of the solvent dimethyl sulfoxide was 0.5%). The cells were incubated for 4 days in the presence of the test substances. Cellular proliferation was determined by staining the cells with crystal violet: the cells were fixed by adding 20 μl/measuring point of an 11% glutaraldehyde solution for 15 min at room temperature. After washing the fixed cells with water three times, the plates were dried at room temperature. The cells were stained by adding 100 μl/measuring point of a 0.1% crystal violet solution (pH adjusted to pH3 by adding acetic acid). After washing the stained cells with water three times, the plates were dried at room temperature. The dye was dissolved by adding 100 μl/measuring point of a 10% acetic acid solution. The extinction was determined photometrically at a wavelength of 595 nm. The percentage change in cell growth was calculated by standardization of the measured values to the extinction values of the zero-point plate (=0%) and the extinction of the untreated (0 μM) cells (=100%). The measured data were standardized to 0% inhibition (cell proliferation without inhibitor) and 100% inhibition (zero-point plate). The IC50 values were determined by means of a 4-parameter fit using the company's own software.
(§2) The substances were examined in the following cell lines which, in an exemplary manner, represent the stated indications: […]

Caco-2 = test: Proliferation assay Caco-2; format: cell-based, human; settings: Caco-2, colon/rectum carcinoma; 4 days, crystal violet
Experimental: as §1, §2

HeLa-MaTu = test: Proliferation assay HeLa-MaTu; format: cell-based, human; settings: cervix carcinoma, 4 days, crystal violet
Experimental: as §1, §2

NCI-H460 = test: Proliferation assay NCI-H460; format: cell-based, human; settings: NCI-H460, non-small-cell bronchial carcinoma; 4 days, crystal violet
Experimental: as §1, §2

DU145 = test: Proliferation assay DU145; format: cell-based, human; settings: DU145, prostate carcinoma; 4 days, crystal violet
Experimental: as §1, §2

H1975 = test: Proliferation assay H1975; format: cell-based; settings: Homo sapiens, NCI-H1975, 96 h; H1975, non-small-cell bronchial carcinoma; 4 days, crystal violet
Experimental: as §1, §2

MDA-MB 231 = test: Proliferation assay MDA-MB 231; format: cell-based; settings: Homo sapiens, 96 h; MDA-MB 231, estrogen receptor-negative mamma carcinoma; 4 days, crystal violet
Experimental: as §1, with “After washing the fixed cells with water three times, the plates were dried at room temperature. The cells were stained by adding 100 μl/measuring point of a 0.1% crystal violet solution (pH adjusted to pH3 by adding acetic acid). After washing the stained cells with water three times, the plates were dried at room temperature. The dye was dissolved by adding 100 μl/measuring point of a 10% acetic acid solution.” left out, “The measured data were standardized to 0% inhibition (cell proliferation without inhibitor) and 100% inhibition (zero-point plate).” left out, “software. […]” for “software.”

A375 = test: Proliferation assay A375; format: cell-based; settings: Homo sapiens, A-375, 96 h; A375, skin: melanoma; 4 days, crystal violet
Experimental: as §1, with “After washing the fixed cells with water three times, the plates were dried at room temperature. The cells were stained by adding 100 μl/measuring point of a 0.1% crystal violet solution (pH adjusted to pH3 by adding acetic acid). After washing the stained cells with water three times, the plates were dried at room temperature. The dye was dissolved by adding 100 μl/measuring point of a 10% acetic acid solution.” left out, “The measured data were standardized to 0% inhibition (cell proliferation without inhibitor) and 100% inhibition (zero-point plate).” left out, “software. […]” for “software.”

HT29 = test: Proliferation assay HT29; format: cell-based; settings: Homo sapiens, HT-29, 96 h; HT29, colon/rectum carcinoma; 4 days, crystal violet
Experimental: as §1, §2

786-O = test: Proliferation assay 786-O; format: cell-based; settings: Homo sapiens, 786-0, 96 h, kidney carcinoma, 4 days, crystal violet
Experimental: as §1, §2

SK-BR-3 = test: Proliferation assay SK-BR-3; format: cell-based; settings: Homo sapiens, 96 h; SK-BR-3, estrogen receptor-negative mamma carcinoma; 4 days, crystal violet
Experimental: as §1, §2

HCT116 = test: Proliferation assay HCT116; format: cell-based; settings: Homo sapiens, HCT-116, 96 h; HCT116, colon/rectum carcinoma; 4 days, crystal violet
Experimental: as §1, §2

MOLM-13 = test: Proliferation assay MOLM-13; format: cell-based; settings: Homo sapiens, 96 h; MOLM-13, leukemia; 4 days, crystal violet
Experimental: as §1, with “After washing the fixed cells with water three times, the plates were dried at room temperature. The cells were stained by adding 100 μl/measuring point of a 0.1% crystal violet solution (pH adjusted to pH3 by adding acetic acid). After washing the stained cells with water three times, the plates were dried at room temperature. The dye was dissolved by adding 100 μl/measuring point of a 10% acetic acid solution.” left out, “The measured data were standardized to 0% inhibition (cell proliferation without inhibitor) and 100% inhibition (zero-point plate).” left out, “software. […]” for “software.”

[1] = biological target: T1, VEGF receptor tyrosine kinase-2 (VEGF-R2) (Homo sapiens, UniProt P35968); test: VEGF receptor-2 kinase assay (Assay 3); format: biochemical; settings: 8 μM ATP, poly-(Glu4Tyr), 10 min 22° C.; read-out: VEGF-R2 (Assay 3) Concentration for half-maximal inhibition of the enzyme activity, IC50
T1 construct: GST; made in house; host or cells: baculovirus-infected insect cells (Sf9)
Experimental: Recombinant VEGF receptor tyrosine kinase-2 was purified as GST fusion protein from baculovirus-infected insect cells (Sf9). Poly-(Glu4Tyr), used as kinase substrate, was purchased from Sigma.
VEGF receptor tyrosine kinase (90 ng/measuring point) was incubated for 10 min at 22° C. in the presence of various concentrations of test substances (0 μM, and within the range 0.001-30 μM) in 30 μl assay buffer [40 mM Tris/HCl pH5.5, 10 mM MgCl2, 1 mM MnCl2, 3 μM Na ortho-vanadate, 1.0 mM dithiothreitol, 8 μM adenosine triphosphate (ATP), 0.96 μg/measuring point poly-(Glu4Tyr), 0.2 μCi/measuring point ^33P-gamma ATP, 1.4% dimethyl sulfoxide]. The reaction was stopped by adding EDTA solution (250 mM, pH 8.0, 15 μl/measuring point).
From each reaction mixture, 15 μl was applied to P30 filter strips (from Wallac), and unincorporated ^33P-ATP was removed by washing the filter strips three times, for 10 min each time, in 0.5% phosphoric acid. After drying the filter strips for 1 hour at 70° C., the filter strips were covered with scintillator strips (MeltiLex™ A, from Wallac) and stoved for 1 hour at 90° C. The amount of incorporated ^33P (substrate phosphorylation) was determined by scintillation measurement in a gamma-radiation measuring instrument (Wallac). The measured data were standardized to 0% inhibition (enzyme reaction without inhibitor) and 100% inhibition (all assay components except enzyme). The IC50 values were determined by means of a 4-parameter fit using the company's own software.

HeLa-MaTu-ADR = test: Proliferation assay HeLa-MaTu-ADR; format: cell-based, human; settings: cervix carcinoma, 4 days, crystal violet
Experimental: as §1, §2

SW480 = test: Proliferation assay SW480; format: cell-based; settings: Homo sapiens, 96 h; SW480, colon/rectum carcinoma; 4 days, crystal violet
Experimental: as §1, §2

HeLa = test: Proliferation assay HeLa; format: cell-based; settings: Homo sapiens, 96 h, cervix carcinoma, 4 days, crystal violet
Experimental: as §1, §2

MIA PaCa-2 = test: Proliferation assay MIA PaCa-2; format: cell-based; settings: Homo sapiens, 96 h; MIA PaCa-2, pancreas carcinoma; 4 days, crystal violet
Experimental: as §1, §2

MDA-MB 453 = test: Proliferation assay MDA-MB 453; format: cell-based; settings: Homo sapiens, 96 h; MDA-MB 453, estrogen receptor-negative mamma carcinoma; 4 days, crystal violet
Experimental: as §1, §2

A431 = test: Proliferation assay A431; format: cell-based; settings: Homo sapiens, A-431, 96 h; A431, skin: epidermis; 4 days, crystal violet
Experimental: as §1, §2

Caki2 = test: Proliferation assay Caki2; format: cell-based; settings: Homo sapiens, CAKI-2, 96 h; Caki2, kidney carcinoma; 4 days, crystal violet
Experimental: as §1, §2

OVCAR-8 = test: Proliferation assay OVCAR-8; format: cell-based; settings: Homo sapiens, 96 h; OVCAR-8, ovarial carcinoma; 4 days, crystal violet
Experimental: as §1, with “After washing the fixed cells with water three times, the plates were dried at room temperature. The cells were stained by adding 100 μl/measuring point of a 0.1% crystal violet solution (pH adjusted to pH3 by adding acetic acid). After washing the stained cells with water three times, the plates were dried at room temperature. The dye was dissolved by adding 100 μl/measuring point of a 10% acetic acid solution.” left out, “The measured data were standardized to 0% inhibition (cell proliferation without inhibitor) and 100% inhibition (zero-point plate).” left out, “software. […]” for “software.”

NCI-H69 = test: Proliferation assay NCI-H69; format: cell-based; settings: Homo sapiens, 96 h; NCI-H69, small-cell bronchial carcinoma; 4 days, crystal violet
Experimental: as §1, with “After washing the fixed cells with water three times, the plates were dried at room temperature. The cells were stained by adding 100 μl/measuring point of a 0.1% crystal violet solution (pH adjusted to pH3 by adding acetic acid). After washing the stained cells with water three times, the plates were dried at room temperature. The dye was dissolved by adding 100 μl/measuring point of a 10% acetic acid solution.” left out, “The measured data were standardized to 0% inhibition (cell proliferation without inhibitor) and 100% inhibition (zero-point plate).” left out, “software. […]” for “software.”

A549 = test: Proliferation assay A549; format: cell-based; settings: Homo sapiens, 96 h; A549, non-small-cell bronchial carcinoma; 4 days, crystal violet
Experimental: as §1, §2

NCI-ADR-Res = test: Proliferation assay NCI-ADR-Res; format: cell-based; settings: Homo sapiens, 96 h, ovarial carcinoma, 4 days, crystal violet
Experimental: as §1, §2

PC3 = test: Proliferation assay PC3; format: cell-based; settings: Homo sapiens, PC-3, 96 h; PC3, prostate carcinoma; 4 days, crystal violet
Experimental: as §1, §2

T1 sequence (P35968 20-1356, species assumed): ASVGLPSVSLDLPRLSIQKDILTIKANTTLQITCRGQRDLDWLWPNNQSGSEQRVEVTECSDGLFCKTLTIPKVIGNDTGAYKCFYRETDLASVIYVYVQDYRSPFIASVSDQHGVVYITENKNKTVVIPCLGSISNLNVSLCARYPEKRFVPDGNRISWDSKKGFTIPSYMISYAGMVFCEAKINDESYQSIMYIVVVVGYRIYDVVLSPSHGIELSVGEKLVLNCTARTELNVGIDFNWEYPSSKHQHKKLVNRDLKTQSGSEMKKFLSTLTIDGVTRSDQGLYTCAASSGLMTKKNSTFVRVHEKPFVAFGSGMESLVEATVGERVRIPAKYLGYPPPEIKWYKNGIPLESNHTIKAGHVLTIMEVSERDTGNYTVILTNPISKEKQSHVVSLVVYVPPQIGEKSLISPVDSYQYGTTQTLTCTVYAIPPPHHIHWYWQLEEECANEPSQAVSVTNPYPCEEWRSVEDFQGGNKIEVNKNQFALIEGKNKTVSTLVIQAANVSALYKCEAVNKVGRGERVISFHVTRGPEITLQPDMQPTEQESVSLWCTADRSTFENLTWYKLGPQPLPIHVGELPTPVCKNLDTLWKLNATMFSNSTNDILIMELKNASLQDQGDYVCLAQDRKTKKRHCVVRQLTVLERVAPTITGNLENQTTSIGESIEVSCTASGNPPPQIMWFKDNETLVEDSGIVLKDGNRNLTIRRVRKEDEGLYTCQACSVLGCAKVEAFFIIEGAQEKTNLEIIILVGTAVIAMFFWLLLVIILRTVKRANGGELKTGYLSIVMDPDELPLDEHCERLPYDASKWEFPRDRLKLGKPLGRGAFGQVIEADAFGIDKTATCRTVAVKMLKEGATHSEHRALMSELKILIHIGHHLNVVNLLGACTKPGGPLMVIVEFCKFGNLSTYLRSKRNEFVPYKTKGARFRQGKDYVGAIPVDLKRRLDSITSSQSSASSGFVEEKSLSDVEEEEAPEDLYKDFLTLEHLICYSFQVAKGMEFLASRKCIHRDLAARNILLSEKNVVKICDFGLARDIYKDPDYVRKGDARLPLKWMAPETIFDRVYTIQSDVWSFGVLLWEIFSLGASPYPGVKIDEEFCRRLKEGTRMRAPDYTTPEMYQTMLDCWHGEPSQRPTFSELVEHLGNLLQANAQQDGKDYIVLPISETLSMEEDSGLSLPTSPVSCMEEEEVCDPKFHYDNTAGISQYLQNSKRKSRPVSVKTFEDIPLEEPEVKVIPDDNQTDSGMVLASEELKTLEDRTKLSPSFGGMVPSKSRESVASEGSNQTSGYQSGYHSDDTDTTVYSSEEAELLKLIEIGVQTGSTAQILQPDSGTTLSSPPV

IC50 (MCF7): 15 nM | IC50 (Caco-2): 16 nM | IC50 (HeLa-MaTu): 11 nM | IC50 (NCI-H460): 12 nM | IC50 (DU145): 8 nM | IC50 (H1975): 11 nM | IC50 (MDA-MB 231): 18 nM | IC50 (A375): 14 nM | IC50 (HT29): 29 nM | IC50 (786-O): 20 nM | IC50 (SK-BR-3): 13 nM | IC50 (HCT116): 18 nM | IC50 (MOLM-13): 14 nM | IC50 [1]: 163 nM | IC50 (HeLa-MaTu-ADR): 8 nM | IC50 (SW480): 15 nM | IC50 (HeLa): 12 nM | IC50 (MIA PaCa-2): 21 nM | IC50 (MDA-MB 453): 15 nM | IC50 (A431): 14 nM | IC50 (OVCAR-8): 12 nM | IC50 (NCI-H69): 37 nM | IC50 (A549): 20 nM | IC50 (PC3): 25 nM
Compound: C[C@@H](O)[C@@H](C)Oc1nc(Nc2ccc(S(=N)(=O)C3CC3)cc2)ncc1C(F)(F)F (mixture of isomers) [Example 1-SI-2, (RS)—S-Cyclopropyl-S-(4-{[4-{[(1R,2R)-2-hydroxy-1-methylpropyl]oxy}-5-(trifluoromethyl)-pyrimidin-2-yl]amino}phenyl)sulfoximide]
IC50 (Caki2): 26 nM | IC50 (NCI-ADR-Res): 33 nM
